Laboratory results from patent publication US20220125760A1, “USE OF USP7 INHIBITORS FOR THE TREATMENT OF ACUTE MYELOID LEUKEMIA (AML)” (INSERM (Institut National de la Santé et de la Recherche …, priority 2019, published 2022).

Columns and labels:
[1] = system: CHK1 ubiquitination in HL60 cells; experiment: CHK1 immunoprecipitation and ubiquitin immunoblot in HL60 cells with MG132; assay type: cell-based, Human; conditions: in presence of proteasome inhibitor MG132, vs control condition
Description: To confirm that USP7 can regulates CHK1 protein level, endogenous CHK1 was immunoprecipitated from HL60 cells treated or not with P22077, in presence of the proteasome inhibitor MG132 to stabilize ubiquitinated forms of the protein. Immunoblotting of these fractions was performed and probed with an antibody against ubiquitin.

[2] = system: CHK1 protein levels in HEL cells; experiment: CHK1 and p53 protein levels in HEL cells; assay type: cell-based, Human; conditions: data not shown
Excerpt: (§1) We then investigated whether USP7 could regulate CHK1 levels in leukemic cells. […] We then used P22077, an inhibitor of USP7 catalytic activity^34,35, to further monitor the impact of USP7 inhibition on CHK1 levels. […] We then asked whether p53 status could affect this response and reproduced these experiments on two AML cell lines, OCI-AML3 and HEL, which express wild-type p53 and high CHK1 protein levels (FIG. 1A and data not shown). […] Using an immunofluorescence approach, we also validated that approximately 50% of CHK1 protein signal disappears after 24 hours of USP7 inhibition (data not shown).

CHK1 protein signal = experiment: Immunofluorescence of CHK1 protein signal; assay type: cell-based; conditions: after 24 hours of USP7 inhibition, data not shown
Excerpt: as §1
We then investigated whether USP7 can regulate CHK1 protein level or its subcellular localization in leukemic cells. […] Using immunofluorescence, we also validated that approximately 50% of the CHK1 protein signal disappears after 24 hours of USP7 inhibition, without any changes in CHK1 subcellular localization (data not shown).

[3] = system: CHK1 protein levels in HL-60 cells; experiment: CHK1 protein level by western blot in HL-60 cells; assay type: cell-based, Human; conditions: HL-60 cells (p53 null), P22077 at 10, visible from 8 h to 24 h of treatment
Description: (§2) FIG. 2: USP7 inhibition decreases CHK1 protein level. […] Actin was used as loading control. Normalization was performed using CTL siRNA condition as reference. […] B: HL-60 cells were treated with USP7 inhibitor (P22077) at 10 and harvested at the indicated times, followed by western blotting for CHK1. […] The amount of CHK1 at t=0 h was set to 1. […] C: OCI-AML3 cells were treated with USP7 inhibitor (P22077) at 10 μM and harvested at the indicated times, followed by western blotting for CHK1 protein. Graph represent the quantification of CHK1 protein levels normalized to actin loading control from 3 independent experiments. Statistical analyses were performed as in B.
as §1

[4] = system: Peripheral Blood Mononuclear Cells (PBMC); experiment: Cell viability of PBMC, annexinV/cell viability staining by flow cytometry; conditions: normal PBMC (n=3), 10 μM P22077 for 24 h
primary AML cells = experiment: Colony formation of primary AML blast cells in methylcellulose-based semi-solid medium; assay type: cell-based, Human; conditions: for colony formation, effect on cytarabine sensitivity: 10 nM cytarabine + 5 μM P22077, 7 days
Description: (§3) B: HL-60 cells were treated as indicated for 24 h. […] Statistical analysis was performed by unpaired t-test (n=4). *P≤0.05 and **P≤0.01. […] Colony formation was assessed after 7 days and represented as the ratio of the number of clones between untreated and treated conditions. For statistical analyses, unpaired Wilcoxon test was used. *P≤0.05, and ns=not significant.
(§4) To explore the possibility that USP7 by modulating CHK1 stability USP7 participates in the chemoresistance of leukemic cells, we examined the capacity of USP7 inhibition to sensitize HL60 and OCI-AML3 cells to cytarabine treatment. […] We then quantified the capacity of primary AML cells to form colonies in methylcellulose-based semi-solid medium, when exposed to clinical relevant concentrations (10 nM) of cytarabine combined with the P22077 inhibitor (FIG. 5D-5E).

[5] = system: CHK1 half-life in HL60 cells; experiment: CHK1 half-life with cycloheximide in HL60 cells; assay type: cell-based, Human
Description: To complete, experiments were performed to test whether the half-life of CHK1 is regulated by USP7 in leukemic cells. To this end, HL60 cells were treated with P22077 and the half-life of CHK1 was measured in the presence of 50 μg/mL cycloheximide (CHX) to inhibit protein biogenesis.

OCI-AML3 cells = experiment: Cell death of OCI-AML3 cells, combination with cytarabine, annexinV flow cytometry; assay type: cell-based, Human; conditions: P22077 10 μM + AraC 1 μM, 24 h
Description: as §3, §4

[6] = system: CHK1 protein level in OCI-AML3 cell line; experiment: CHK1 protein level by western blot in OCI-AML3 cells; assay type: cell-based, Human; conditions: OCI-AML3 cells (wild-type p53), P22077 10 μM
Description: as §2
We then investigated whether USP7 could regulate CHK1 levels in leukemic cells. […] . We then asked whether p53 status could affect this response and reproduced these experiments on two AML cell lines, OCI-AML3 and HEL, which express wild-type p53 and high CHK1 protein levels (FIG. 1A and data not shown). […] . Using an immunofluorescence approach, we also validated that approximately 50% of CHK1 protein signal disappears after 24 hours of USP7 inhibition (data not shown).

AML primary samples = experiment: Cell viability of AML primary samples, annexinV/cell viability staining by flow cytometry; conditions: three primary AML samples, 10 μM P22077 for 24 h
HL-60 cells = experiment: Cell death of HL-60 cells, combination with cytarabine, annexinV flow cytometry; assay type: cell-based, Human; conditions: HL60 cells, 24 h
Description: as §3, §4

[7] = system: OCI-AML3 cells engrafted in NSG mice; experiment: OCI-AML3 xenograft in NSG mice, overall survival; conditions: NSG mice engrafted with OCI-AML3, 30 mg/kg/day IP for 5 days, vs vehicle, p=0.0001
Description: For statistical analysis, Mantel-Cox test was used. ***P≤0.001.
NOD/LtSz-SCID/IL-2Ry chain null (NSG) mice were bred at the UMS006 in Toulouse (France) using breeders obtained from Charles River. […] NSG mice were treated by i.p. injection of busulfan (20 mg/kg) on the day before the experiment. Mice were engrafted by injection of 2.10^6 OCI-AML3 cells into the tail vein. […] Mice were treated by daily intraperitoneal (IP) injection with AraC, P22077 or vehicle for 5 days. Overall mouse survival was established under these conditions.
OCI-AML3 resistant cells were injected into the tail vein of immunodeficient NSG mice to establish AML disease.

CHK1 and USP7 = target: T1, CHK1 and USP7 (Homo sapiens, UniProt Q93009); experiment: Proximity Ligation Assay (PLA) of CHK1 and USP7 in HL-60 cells; assay type: cell-based; conditions: HL60 cells, drug treatment, untreated (NT) 1.07+/−0.07
T1 construct: endogenous in cells; host or cells: HL-60 cells
T1 sequence (Q93009 whole entry): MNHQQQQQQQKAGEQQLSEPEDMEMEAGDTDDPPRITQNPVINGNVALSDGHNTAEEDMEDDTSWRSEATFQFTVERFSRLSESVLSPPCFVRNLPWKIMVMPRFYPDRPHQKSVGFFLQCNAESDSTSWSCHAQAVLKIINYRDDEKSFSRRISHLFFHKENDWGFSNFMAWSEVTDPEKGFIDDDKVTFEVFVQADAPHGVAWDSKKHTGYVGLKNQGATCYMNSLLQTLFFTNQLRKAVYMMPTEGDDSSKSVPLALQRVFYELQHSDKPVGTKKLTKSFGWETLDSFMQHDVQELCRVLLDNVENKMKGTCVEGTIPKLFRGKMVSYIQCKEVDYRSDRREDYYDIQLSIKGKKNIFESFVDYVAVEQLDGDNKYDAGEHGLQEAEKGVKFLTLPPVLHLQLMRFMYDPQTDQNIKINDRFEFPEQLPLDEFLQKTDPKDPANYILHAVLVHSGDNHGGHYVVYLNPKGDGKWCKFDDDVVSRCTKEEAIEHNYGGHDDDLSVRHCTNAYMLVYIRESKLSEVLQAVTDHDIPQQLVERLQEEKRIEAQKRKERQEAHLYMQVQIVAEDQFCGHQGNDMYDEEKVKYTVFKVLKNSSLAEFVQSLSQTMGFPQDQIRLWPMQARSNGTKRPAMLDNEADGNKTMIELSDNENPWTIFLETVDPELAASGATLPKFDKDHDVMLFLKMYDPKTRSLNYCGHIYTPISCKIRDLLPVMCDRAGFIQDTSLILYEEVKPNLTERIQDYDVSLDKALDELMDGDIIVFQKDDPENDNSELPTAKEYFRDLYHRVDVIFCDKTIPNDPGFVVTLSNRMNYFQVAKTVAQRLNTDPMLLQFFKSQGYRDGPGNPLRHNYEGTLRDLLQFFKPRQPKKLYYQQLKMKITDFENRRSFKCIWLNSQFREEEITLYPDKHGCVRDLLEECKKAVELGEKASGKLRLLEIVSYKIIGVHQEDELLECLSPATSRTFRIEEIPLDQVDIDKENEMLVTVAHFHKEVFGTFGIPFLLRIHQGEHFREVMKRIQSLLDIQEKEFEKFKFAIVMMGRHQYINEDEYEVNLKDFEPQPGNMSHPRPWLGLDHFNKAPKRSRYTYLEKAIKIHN
Description: as §3

Row | PLA foci per cell, co-staining of CHK1 and USP7 (mean +/- s.e.m.) (CHK1 and USP7; listed as AraC) | SMILES | CHK1 ubiquitination [1] | CHK1 protein levels ([2]; HEL cells (wild-type p53)) | p53 protein levels ([2]; HEL cells) | CHK1 protein signal that disappears (immunofluorescence) (CHK1 protein signal) | CHK1 protein levels [3] | cell viability [4] | colony formation, effect on cytarabine sensitivity (primary AML cells; high CHK1 primary AML cells (n=6)) | colony formation, effect on cytarabine sensitivity (primary AML cells; low CHK1 primary AML cells (n=3)) | half-life of CHK1 protein ([5]; 50 μg/mL cycloheximide, after 6 hours of P22077 treatment) | CHEK1 mRNA expression ([5]; P22077 treatment, data not shown) | cell death in combination with cytarabine (OCI-AML3 cells) | CHK1 protein level [6] | cell viability (AML primary samples) | cell death in combination with cytarabine (HL-60 cells) | overall mouse survival [7] | PLA foci per cell, co-staining of CHK1 and USP7 (mean +/- s.e.m.) (CHK1 and USP7) | colony formation, resistance of high CHK1 cells compared to low CHK1 cells (primary AML cells; 10 nM cytarabine alone, 7 days)
1 |  | CC(=O)c1cc([N+](=O)[O-])c(Sc2ccc(F)cc2F)s1 [P22077, 1-[5-[(2,4-Difluorophenyl)thio]-4-nitro-2-thienyl]-ethanone] | more abundantly ubiquitinated | similarly decreased CHK1 protein levels | without significant impact on p53 protein levels | approximately 50% | significant decrease of CHK1 protein levels | largely unaffected | potentiated the effects of cytarabine | did not modify the sensitivity to cytarabine | significantly shortened the half-life of CHK1 protein | without affecting CHEK1 mRNA expression | synergistically enhances cell death induced by cytarabine | reduced CHK1 protein level | significantly reduced cell viability | synergistically enhances cell death induced by cytarabine | significantly improved overall mouse survival |  | 
2 | 3.31+/−0.21 foci/cell | Nc1ccn([C@@H]2O[C@H](CO)[C@@H](O)[C@@H]2O)c(=O)n1 [cytarabine] |  |  |  |  |  |  |  |  |  |  |  |  |  |  |  | significant proximity between the two proteins | significantly more resistant to cytarabine
